Where two headings read alike, the source gives them in different places.
Tests used:
[1] = tested on: PC-3 human prostate cancer cells; assay: Accumulation of radiotracers by cultured PC-3 cells; format: cell-based; conditions: for Uptake by PC-3 cancer cells, HC-3: 5 mM hemicholinium-3; for accumulation by cultured PC-3 cells compared with other tracers: control conditions; for Uptake by PC-3 cancer cells, Control: 2 hr incubation
Method: The incubation media utilized for the experiments differed according to the cancer cell type (Table 1). On the day of the study, the medium was refreshed using a volume of 1 ml in each well. Cells were incubated in control conditions or with the addition of metabolic and growth factor receptor inhibitors to test the sensitivity of uptake of the radiotracers to specific inhibitions. […] Following a 30-min incubation period, the radiotracers (e.g., FDG or FCH) were added (˜2 µCi/well) and the cells were incubated for 2 hr. The cells were washed three times with phosphate buffered saline solution, released from the plates by briefly incubating with 0.05% trypsin in DMEM, transferred to test tubes, and counted for F-18 radioactivity in a gamma counter. The amount of radioactivity in the cells was normalized by the dose administered to each well.
The present work studies the structure-activity relationships for purposes of optimization of the molecule for imaging prostate cancer. […] A number of structural analogs of choline were labeled as N-[^18F]fluoromethyl derivatives via the intermediate [^18F]fluorobromomethane (see Table 3). Uptake of the radiotracers was assessed in cultured PC-3 human prostate cancer cells and in a murine PC-3 xenograft model.

yeast choline kinase = biological target: T1, yeast choline kinase (Saccharomyces cerevisiae, UniProt P20485); assay: In vitro phosphorylation by yeast choline kinase; format: biochemical; conditions: 1 μM choline; for In vitro phosphorylation: 25 mU/ml yeast choline kinase, 23° C., 10 min, n = 5
T1 sequence (P20485 1-582): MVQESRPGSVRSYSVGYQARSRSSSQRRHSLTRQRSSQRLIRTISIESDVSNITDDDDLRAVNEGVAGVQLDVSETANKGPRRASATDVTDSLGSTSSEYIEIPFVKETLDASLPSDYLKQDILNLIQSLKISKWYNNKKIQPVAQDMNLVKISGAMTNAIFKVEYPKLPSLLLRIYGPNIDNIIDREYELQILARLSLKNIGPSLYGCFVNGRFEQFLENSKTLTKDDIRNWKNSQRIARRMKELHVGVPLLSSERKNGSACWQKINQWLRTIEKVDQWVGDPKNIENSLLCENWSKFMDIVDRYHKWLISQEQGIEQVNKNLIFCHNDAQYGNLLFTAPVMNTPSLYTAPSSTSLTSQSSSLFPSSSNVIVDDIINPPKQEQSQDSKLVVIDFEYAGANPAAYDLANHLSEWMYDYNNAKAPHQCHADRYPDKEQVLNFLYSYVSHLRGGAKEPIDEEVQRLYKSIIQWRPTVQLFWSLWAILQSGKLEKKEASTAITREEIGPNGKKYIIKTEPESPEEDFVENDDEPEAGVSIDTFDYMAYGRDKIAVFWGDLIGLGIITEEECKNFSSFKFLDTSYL
Method: The test tube was gently agitated throughout the incubation period. The reaction was stopped by placing the tube in a boiling water bath for 2 min. To serve as controls, some samples were placed directly in the boiling water bath after addition of all substrates. […] The percentage of radioactivity converted to the phosphorylated form was calculated.

[2] = tested on: mice with PC-3 xenografts; conditions: for tumor uptake: PC-3 xenograft
Method: Body weight and tumor volume were measured weekly and tumor volume (mm3) was calculated using the formula S2×L/2, where S and L represent the small and large diameters of the tumor, respectively.
A prescribed duration of time was allowed before procurement of heart, liver, lung, blood, kidney, bone (femur), brain (whole), prostate gland, tumor, bladder, and skeletal muscle. The tissues were weighed, and counted for ^18F in a gamma counter, then dissolved in Solvable (Dupont, Boston Mass.) and counted for ^14C in a liquid scintillation counter. For the bladder, the percentage of the injected dose in the urine was determined. For all other tissues, radiotracer uptake was calculated as: […]

[3] = tested on: patients with prostate cancer; assay: PET imaging in patients with prostate cancer; conditions: Example 11 patient, metastatic prostate cancer
Method: The distribution of FCH in PET imaging studies was evaluated in 14 patients with prostate cancer, 14 patients with breast cancer, and 5 patients with brain tumors. Imaging was performed using the Advance PET scanner (GE Medical Systems, Milwaukee, Wis.). […] In prostate cancer patients, a transmission scan of the pelvic region was obtained before administration of radiotracer. FCH (2.5-5 mCi) was administered intravenously, and dynamic imaging of the pelvis region was commenced for 20-30 min. During image reconstruction, the emission data in the pelvic region were corrected for photon attenuation using the transmission scan. Immediately following the dynamic scan, a whole-body emission scan was performed without transmission scanning for attenuation correction. The images were reconstructed using an Ordered Subset Expectation Maximum (OS-EM) algorithm. Regions-of-interest were drawn manually on the attenuation corrected images for evaluation of FCH kinetics in tissues. Standardized uptake values of FCH uptake in tissues were calculated using the attenuation-corrected images according to the equation: [formula]
Patient 2: Transmission and FCH emission scans of a person with hormone naive clinical stage T2 prostate cancer were commenced over the lower pelvis.
The same patient was scanned with FDG within the same week (FIG. 8).
Patient 4: A person with a history of clinical stage T3b prostate cancer treated by radical retropubic prostatectomy was diagnosed with metastatic disease by bone scan. FCH-PET imaging was performed before and after initiating androgen deprivation therapy. In the first study, whole-body emission scanning was started 5 min after injection, beginning at the pelvic region in order to image the pelvis and prostatic bed before arrival of urinary radioactivity. […] The patient was rescanned 2 weeks after initiating androgen deprivation therapy.
Patient 5: A person was initially diagnosed five years prior with locally advanced clinical stage T3NOMO prostate cancer and underwent radical prostatectomy followed by external beam radiation to the prostate bed. […] The patient was then treated with Zolex and Casodex.

[4] = inhibitor HC-3 (hemicholinium-3, 5 mM)

## C[N+]1(C[18F])CCCC(O)C1 (stereo not shown) [cyclic N—OH]
[1]; inhibitor none
  Uptake by PC-3 cells: 0.077 ± 0.011 % dose/2 hr/10^5 cells plated

## CC[N+](C)(C[18F])CCO (stereo not shown) [FEtC, [^18F]fluoromethylethylcholine]
Yeast choline kinase
  phosphorylation rate compared with CH: equivalent to CH
  In vitro phosphorylation: 55.2 ± 6.6%
[1]
  uptake in cultured PC-3 cells: ~2 %/hr/100,000 cells plated
  Uptake by PC-3 cancer cells, HC-3: 0.12 ± 0.02 % dose/2 hr/105 cells plated
  accumulation by cultured PC-3 cells compared with other tracers: higher than HARA-1 (p<0.05), but lower than FCH
  Uptake by PC-3 cancer cells, Control: 0.74 ± 0.04 % dose/2 hr/105 cells plated
[1]; [4]
  Uptake by PC-3 cells: 0.122 ± 0.016 % dose/2 hr/10^5 cells plated
[1]; inhibitor none
  Uptake by PC-3 cells: 0.741 ± 0.041 % dose/2 hr/10^5 cells plated
[2]
  tumor uptake: ~0.07 % dose kg/g

## CCC[N+](C)(C[18F])CCO (stereo not shown) [FPrC]
[1]
  uptake in cultured PC-3 cells: ~2 %/hr/100,000 cells plated
[1]; [4]
  Uptake by PC-3 cells: 0.062 ± 0.001 % dose/2 hr/10^5 cells plated
[1]; inhibitor none
  Uptake by PC-3 cells: 1.877 ± 0.115 % dose/2 hr/10^5 cells plated
[2]
  tumor uptake: ~0.07 % dose kg/g

## C=CC[N+](C)(C[18F])CCO (stereo not shown) [Allyl]
[1]; [4]
  Uptake by PC-3 cells: 0.11 ± 0.01 % dose/2 hr/10^5 cells plated
[1]; inhibitor none
  Uptake by PC-3 cells: 4.45 ± 0.46 % dose/2 hr/10^5 cells plated

## [2H]C([2H])(O)C[N+](C)(C[18F])CCC (stereo not shown) [propyl - D]
[1]; inhibitor none
  Uptake by PC-3 cells: 1.864 ± 0.307 % dose/2 hr/10^5 cells plated

## [2H]C([2H])(O)CC[N+](C)(C)C[18F] [propanol - D]
[1]
  Uptake by PC-3 cells: 0.763 ± 0.065 % dose/2 hr/10^5 cells plated

## [2H]C([2H])(O)C[N+](C)(C)C[18F] [FDC]
[1]; inhibitor none
  Uptake by PC-3 cells: 2.410 ± 0.144 % dose/2 hr/10^5 cells plated
[2]; 60 min after injection
  Tumor:muscle ratio: highest
  tumor:blood ratio: highest
[3]
  SUV of osseous lesion (pubic ramus): 11.7

## OCC[N+]1(C[18F])CCCCC1 [cyclic 6N]
[1]; inhibitor none
  Uptake by PC-3 cells: 0.144 ± 0.014 % dose/2 hr/10^5 cells plated

## CCCCC[N+](C)(C[18F])CCO (stereo not shown) [Pentyl]
[1]; inhibitor none
  Uptake by PC-3 cells: 0.073 ± 0.007 % dose/2 hr/10^5 cells plated

## CCCC[N+](C)(C[18F])CCO (stereo not shown) [Butyl]
[1]; inhibitor none
  Uptake by PC-3 cells: 0.153 ± 0.021 % dose/2 hr/10^5 cells plated

## C[N+](C)(C[18F])CCCO [FHC, [^18F]fluorohomocholine]
[1]
  uptake in cultured PC-3 cells: ~2 %/hr/100,000 cells plated
[1]; inhibitor none
  Uptake by PC-3 cells: 1.635 ± 0.306 % dose/2 hr/10^5 cells plated
[2]
  tumor uptake: ~0.07 % dose kg/g

## CC(O)C[N+](C)(C)C[18F] (stereo not shown) [Tracer 1-methyl]
[1]; inhibitor none
  Uptake by PC-3 cells: 0.202 ± 0.021 % dose/2 hr/10^5 cells plated

## CCC[N+](C)(C[18F])CCCO (stereo not shown) [Propyl-prop.]
[1]; inhibitor none
  Uptake by PC-3 cells: 0.234 ± 0.050 % dose/2 hr/10^5 cells plated

## [2H]C([2H])(O)C[N+](C)(CC)C[18F] (stereo not shown) [FEDC]
[1]; inhibitor none
  Uptake by PC-3 cells: 0.720 ± 0.065 % dose/2 hr/10^5 cells plated

## OCC[N+]1(C[18F])CCCC1 [cyclic 5N]
[1]; inhibitor none
  Uptake by PC-3 cells: 0.355 ± 0.028 % dose/2 hr/10^5 cells plated

## OCC[N+](C[18F])(CCO)CCO [triethanol]
[1]; inhibitor none
  Uptake by PC-3 cells: 0.170 ± 0.045 % dose/2 hr/10^5 cells plated

## C[N+](C)(C[18F])CCCCO [Butanol]
[1]
  Uptake by PC-3 cells: 0.140 ± 0.042 % dose/2 hr/10^5 cells plated

## CC[N+](CC)(C[18F])CCO [Diethyl]
[1]; inhibitor none
  Uptake by PC-3 cells: 0.503 ± 0.091 % dose/2 hr/10^5 cells plated

## C[N+](C[18F])(CCO)Cc1ccccc1 (stereo not shown) [benzyl]
[1]; inhibitor none
  Uptake by PC-3 cells: 0.202 ± 0.009 % dose/2 hr/10^5 cells plated

## CC(C)C[N+](C)(C[18F])CCO (stereo not shown) [Isobutyl]
[1]; inhibitor none
  Uptake by PC-3 cells: 2.74 ± 0.09 % dose/2 hr/10^5 cells plated

## CC(CO)[N+](C)(C)C[18F] (stereo not shown) [Tracer 2-methyl]
[1]; inhibitor none
  Uptake by PC-3 cells: 0.182 ± 0.016 % dose/2 hr/10^5 cells plated

## C[N+](C)(CCO)CCC[18F] [FPC, [^18F]fluoropropylcholine]
Yeast choline kinase
  phosphorylation rate, less than for FCH: ~60%
  In vitro phosphorylation: 22.1 ± 3.1 %
[1]
  Uptake by PC-3 cancer cells, HC-3: 0.76 ± 0.20 % dose/2 hr/105 cells plated
  accumulation by cultured PC-3 cells compared with other tracers: not significantly different from that of FCH
  Uptake by PC-3 cancer cells, Control: 1.29 ± 0.28 % dose/2 hr/105 cells plated
[1]; HC-3 versus control
  decrease in uptake by PC-3 cells with hemicholinium-3 (HC-3): 41%

## CCC(C)[N+](C)(C[18F])CCO (stereo not shown) [Sec-butyl]
[1]; inhibitor none
  Uptake by PC-3 cells: 0.28 ± 0.01 % dose/2 hr/10^5 cells plated

## CC[N+](C)(C[18F])CCCO (stereo not shown) [Ethyl-Prop.]
[1]; inhibitor none
  Uptake by PC-3 cells: 0.285 ± 0.023 % dose/2 hr/10^5 cells plated

## C#CC[N+](C)(C[18F])CCO (stereo not shown) [FPP]
[1]; inhibitor none
  Uptake by PC-3 cells: 7.90 ± 0.53 % dose/2 hr/10^5 cells plated

## OCC[N+]1(C[18F])CCOCC1 [cyclic 6NO]
[1]; inhibitor none
  Uptake by PC-3 cells: 0.399 ± 0.014 % dose/2 hr/10^5 cells plated

## C[N+](C[18F])(CCO)CCO [Diethanol]
[1]; inhibitor none
  Uptake by PC-3 cells: 0.462 ± 0.083 % dose/2 hr/10^5 cells plated

From patent publication US6630125B2, “18F-labeled choline analogs” (priority 2000, dated 2003)
